From patent publication US20030207340A1, “Sequences encoding human neoplastic marker” (priority 2002, published 2003)
pEC50: −log10 of the molar value.

How the values were obtained:
COS cells = experiment: Growth inhibition of control COS cells (nontransfected / vector alone); type: cell-based, African monkey; conditions: for pEC50: Primates, nontransfected COS cells, growth inhibition
Method: (§1) COS-1 cells (African monkey kidney cell line), were plated one day prior to transfection at 4×10^5 cells per 100-mm dish. Thirty-six μl of 2 M CaCl2 and 30 μg of pcDNA3.1 or pcDNA3.1-tNOX in 300 μl sterile H2O were slowly added dropwise into 300 μl of 2× Hepes Buffered Saline (HBS) at room temperature for 30 min. The transfection mixtures then were added dropwise to the media to the cells and incubated overnight at 37C. After overnight exposure to the DNA precipitate, the cells were washed twice with PBS and 3 ml of DMSO were added for 2.5 min. The DMSO then was removed and cells were fed with fresh media for 2-3 days. tNOX expression was evaluated on the basis of enzymatic activity and Western blot analysis. For selection of stable transfectants, antibiotic G418 sulfate was used (Invitrogen, Carlsbad, Calif.). After the COS cells were transfected with the tNOX cDNA expression plasmid, 0.5 mg/ml of G418 sulfate was added into the media twice a week and the cultures were maintained until colonies 2 to 3 mm in diameter were formed. A total of three colonies were selected and trypsinized individually and then transferred into wells of a 24-well plate and then into a 35 mm petri dish. Cells were harvested at 80% confluency. Transfections were confirmed by immunoblotting.

[1] = system: COS cells stably transfected with tNOX cDNA; experiment: Growth inhibition of COS cells transfected with tNOX cDNA; type: cell-based, African monkey; conditions: for pEC50: Primates, COS cells stably transfected with tNOX cDNA, growth inhibition; for change of growth response (susceptibility) by tNOX cDNA transfection: tNOX cDNA-transfected vs control COS cells
Description: Transient transfection of COS cells were with pcDNA3.1 (Invitrogen) and a Calcium Phosphate Transfection Kit (Invitrogen, Carlsbad, Calif.) according to the manufacturer's protocol. ttNOX cDNA was first amplified by PCR using primers 5═-[…]-3′ (forward; SEQ ID NO: 12) and 5′-[…]-3′ (reverse, SEQ ID NO: 13). The PCR product was then amplified using primers 5′-[…]-3′ (forward, SEQ ID NO: 14) and 5′-[…]-3′ (reverse, SEQ ID NO: 15) to construct a HindIII site at 5′ end of the nontemplate strand. The product was double digested using HindIII and BamHI enzymes. The digested products were separated on an agarose gel and extracted using a DNA Extraction Kit (Qiagen, Valencia, Calif.). The DNA was then ligated into a pcDNA3.1 vector that contains a cytomegalovirus enhancer-promoter for high levels of expression. For propagation of the plasmid DNA, the ligation product was used to transform XL-1 blue competent cells using heat pulse technique (Sambrook et al., 1989, supra). The positive clones were identified by PCR. The resulting plasmid was then used to transfect COS cells.
as §1

ttNOX (truncated tNOX) = target: T1, ttNOX (truncated tNOX) (Homo sapiens, UniProt Q16206); experiment: NADH oxidase activity of ttNOX expressed in E. coli (induced bacterial extract); type: biochemical
T1 construct: made in house; host or cells: E. coli BL21 (DE3), vector pET-11b; crude induced bacterial extract
T1 sequence (Q16206 220-610): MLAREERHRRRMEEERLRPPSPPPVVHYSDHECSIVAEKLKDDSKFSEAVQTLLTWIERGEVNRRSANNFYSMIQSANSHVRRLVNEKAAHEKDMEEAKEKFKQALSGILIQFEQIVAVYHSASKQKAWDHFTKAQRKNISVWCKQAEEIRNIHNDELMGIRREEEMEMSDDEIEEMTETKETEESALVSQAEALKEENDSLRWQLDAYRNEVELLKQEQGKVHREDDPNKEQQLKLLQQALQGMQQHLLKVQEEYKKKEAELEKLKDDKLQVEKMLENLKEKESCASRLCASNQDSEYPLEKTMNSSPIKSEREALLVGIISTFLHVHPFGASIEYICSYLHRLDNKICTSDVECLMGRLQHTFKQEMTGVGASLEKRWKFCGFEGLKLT
Description: tNOX cDNA from clone 1 was expressed in E. coli either as a truncated form (ttNOX) (beginning at M220), as a fusion protein with six histidine residues (ttNOX-his) fused to the amino terminus of ttNOX, or as a processed tNOX (beginning at G327). First, the open reading frame of ttNOX DNA and nucleotides of 3′-untranslated region were amplified by PCR, digested with NdeI and BamHI followed by ligation into the protein expression vector pET-11b. All primers were synthesized by the Laboratory for Macromolecular Structure (Purdue University, IN). Primers for PCR amplification of ttNOX were 5′-[…]-3′ (forward, SEQ ID NO: 6) and 5′[…]-3′ (reverse, SEQ ID NO: 7). Primers for processed form of tNOX were 5′-[…]-3′ (forward, SEQ ID NO: 8) and 5′-[…]-3′ (reverse, SEQ ID NO: 9). Primers for histidine-tagged ttNOX were 5′-[…]-3′ (forward, SEQ ID NO: 10) and 5′-[…]-3′ (reverse, SEQ ID NO: 11). The forward primer was designed to incorporate six histidine residues to the amino terminus of tNOX protein. The amplification performed was with an initiation step of 94C. for 90 sec, followed by 90 sec of denaturation at 94C., 90 sec of annealing at 55C., and 90 sec of extension at 72C. for 29 cycles.
E. coli [BL21 (DE3)] were transfected and grown in LB medium containing ampicillin (100 μg/ml) for 16 hr at 25C. and harvested. DNA sequences of the ligation products were confirmed by DNA sequencing. Expressions of all forms of tNOX were confirmed by SDS-PAGE with silver staining and immunoblotting. Immunoblot analysis was with anti-tNOX monoclonal antibody. Detection used alkaline […] conjugated anti-mouse antibody.

[2] = system: plasma membranes prepared from HeLa cells; conditions: cited from earlier work
tNOX = target: T2, tNOX (Homo sapiens, UniProt Q16206); conditions: cited from earlier work
T2 sequence (Q16206 1-610): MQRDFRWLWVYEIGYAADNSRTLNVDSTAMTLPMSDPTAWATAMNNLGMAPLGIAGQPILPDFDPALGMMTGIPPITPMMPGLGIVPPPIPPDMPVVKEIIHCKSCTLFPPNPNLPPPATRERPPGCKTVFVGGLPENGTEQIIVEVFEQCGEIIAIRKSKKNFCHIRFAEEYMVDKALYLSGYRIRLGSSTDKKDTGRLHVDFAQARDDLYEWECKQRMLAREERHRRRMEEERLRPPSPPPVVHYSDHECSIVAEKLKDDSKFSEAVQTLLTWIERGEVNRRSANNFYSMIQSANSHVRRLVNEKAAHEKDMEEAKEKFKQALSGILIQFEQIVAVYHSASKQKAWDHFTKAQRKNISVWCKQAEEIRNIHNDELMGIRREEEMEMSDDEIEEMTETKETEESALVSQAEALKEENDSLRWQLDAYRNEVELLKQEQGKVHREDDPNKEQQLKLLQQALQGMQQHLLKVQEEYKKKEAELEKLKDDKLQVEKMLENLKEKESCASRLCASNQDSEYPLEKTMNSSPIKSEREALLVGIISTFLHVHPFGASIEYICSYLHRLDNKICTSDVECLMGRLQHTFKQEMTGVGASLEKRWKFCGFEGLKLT

CNOX = conditions: cited from earlier work

| Compound | pEC50 (COS cells) | pEC50 [1] | change of growth response (susceptibility) by tNOX cDNA transfection [1] | also measured |
| --- | --- | --- | --- | --- |
| COc1cccc2c1C(=O)c1c(O)c3c(c(O)c1C2=O)C[C@@](O)(C(=O)CO)C[C@@H]3O[C@H]1C[C@H](N)[C@H](O)[C@H](C)O1 [Adriamycin, adriamycin] | 6.52 | 7.40 |  |  |
| COc1cc(CNC(=O)CCCC/C=C/C(C)C)ccc1O [Capsaicin, 8-methyl-N-vanillyl-6-noneamide] | 4.89 | 5.89 | more susceptible | inhibition of the activity of the bacterially expressed protein (ttNOX (truncated tNOX)): complete; periodic NADH oxidase activity of induced bacterial extracts (ttNOX (truncated tNOX); in the presence of 1 or 100 μM capsaicin): no periodic activity |
| Cc1ccc(S(=O)(=O)NC(=O)Nc2ccc(Cl)cc2)cc1 [LY181984, N-(4-methylphenylsulfonyl)-N′-(4-chlorophenyl)urea] | 4.70 | 5.52 |  | oxygen uptake by HeLa plasma membranes [2]: inhibited; inhibition of NADH oxidase activity of induced bacterial extract (ttNOX (truncated tNOX); 1 μM): completely inhibited |
| Cc1ccc(S(=O)(=O)NC(=O)Nc2ccccc2)cc1 [LY181985, N-(4-methylphenylsulfonyl)-N′-(4-phenyl)urea] |  |  |  | growth inhibition (COS cells; control cells transfected with vector alone): did not inhibit; growth inhibition ([1]; cells transfected with tNOX cDNA): did not inhibit |
| CN(Cc1cnc2nc(N)nc(N)c2n1)c1ccc(C(=O)N[C@@H](CCC(=O)O)C(=O)O)cc1 [Methotrexate, methotrexate] | 6.00 | 6.00 | unaffected |  |
| (−)-epigallocatechin gallate [EGCg] |  |  | more susceptible | effect on activity of tNOX (tNOX): inhibits; effect on constitutive CNOX (CNOX): largely without effect |
